{
  "source": "patent US20120004199A1",
  "about": "“SCAFFOLDS” (priority 2009, published 2012)",
  "key": {"[1]": {"test_system": "human fibroblast (HDF)", "test": "MTT-ESTA assay of cell metabolic activity, 2D HDF cultures", "type": "cell-based", "conditions": "for % Viability: 24 h exposure, HDF; for concentration showing a cytotoxic response: fibroblast viability", "experimental": "(§1) Normal human fibroblasts were isolated and cultured as described previously (Ralston et al., 1997). […] Keratinocytes were cultured in Dulbecco's modified Eagle's medium (DMEM) supplemented with 10% (v/v) foetal calf serum (FCS), 2 mM glutamine, 0.625 μg/ml amphotericin B, 100 IU/ml penicillin and 100 μg/ml streptomycin."}, "[2]": {"test_system": "NF-κB/p65", "test": "NF-κB/p65 activation immunolabelling in 2D fibroblast cultures stimulated with LPS or TNF-α", "type": "cell-based, human", "conditions": "for effect on LPS induced NF-κB activation / effect on TNF induced NF-κB activation: 10^−4 and 10^−3M; for effect on LPS induced NF-κB activation: LPS 100 ng/mL; for effect on TNF induced NF-κB activation: TNF-α 1000 U/mL", "experimental": "LPS from E. coli serotype O111:B4 (Sigma-Aldrich) at 100 ng/mL or TNF-α (Sigma-Aldrich) at 1000 U/mL was used as a positive control for activation of NF-κB in fibroblasts. In preliminary experiments, Ibuprofen (10^−3 and 10^−4 M, sodium salt and isomer mixture; Sigma-Aldrich, UK) was used to downregulate NF-κB activation. Then the 10% Ibuprofen loaded PLGA scaffolds (75/25, 50/50 and a 1:1 blend of these two) were examined. Negative controls were produced by incubating cells in normal DMEM. All experiments were performed in triplicate.\nFollowing the Ibuprofen treatments, monolayers were washed in PBS and the cells were fixed in 10% formalin (500 μL per well) for 30 minutes. Cell monolayers were washed a further three times in PBS, prior to cell permeabilisation with 0.1% Triton X100 for 20 minutes. Subsequently, cells were washed three times with PBS. Unreactive binding sites were blocked by adding a 5% dried milk powder solution to each well for 1 hour. A further three washes in PBS were performed prior to incubation with the first antibody solution. The first antibody (rabbit polyclonal antihuman IgG NF-κB p65 C-20, Santa Cruz Biotechnology Inc., CA) was added at a concentration of 1:100 in 1% PBS-dried milk powder. Cells were incubated in the antibody solution at 4° C. for 18 hours. The cells were washed three more times in PBS. Afterwards, cells were incubated with biotinylated goat anti-rabbit (1:1000) (Vector Laboratories, CA) in 1% PBS-milk powder. The cells were then washed a further three times in PBS. Streptavidin-FITC (Vector Laboratories, CA) conjugate was then added to the wells at a concentration of 1:100 in PBS. A further three washes in PBS were performed. After this time, the fluorescent staining were visualised using an AXON image express system (Axon Instruments/Molecular Devices, Union City, Calif.). Briefly, fluorescence micrographs of immunolabelled samples were taken using epifluorescent illumination at λex 495 nm λem 515 nm (for FITC visualisation); λex 358 nm λem 461 nm (for DAPI visualisation). DAPI fluorescence was used to identify nuclear position. The boundary between nucleus and cytoplasm was delimited by analysis software (ImageXpress Console 1.0) using DAPI micrographs in a sample of at least 100 cellular counts per visual field. Within the defined region, the intensity of FITC (NF-κB/p65) labelling was used to calculate activation for each micrograph and sample. […] The analysis of the micrographs was done in triplicate."}, "[3]": {"test": "MTT-ESTA assay of cell metabolic activity, 2D HDF cultures", "type": "cell-based, human", "conditions": "human, normal human dermal fibroblasts (HDF), 2D monolayer culture, 24 h exposure, HDF", "experimental": "as §1"}},
  "data": [
    {"compound": "CC(C)Cc1ccc(C(C)C(=O)O)cc1", "note": "(racemic) [Ibuprofen isomer mixture, 2-(4-isobutylphenyl)propionic acid]", "values": [
      {"measurement": "% Viability", "setting": "[1]; Treatment 10^−2", "value": 7.20, "unit": "%"},
      {"measurement": "% Viability", "setting": "[1]; Treatment 10^−3", "value": 101.11, "unit": "%"},
      {"measurement": "% Viability", "setting": "[1]; Treatment 10^−4", "value": 108.56, "unit": "%"},
      {"measurement": "% Viability", "setting": "[1]; Treatment 10^−5", "value": 111.80, "unit": "%"},
      {"measurement": "% Viability", "setting": "[1]; Treatment 10^−6", "value": 109.43, "unit": "%"},
      {"measurement": "concentration showing a cytotoxic response", "setting": "[1]", "value": "10^−2 M"},
      {"measurement": "effect on LPS induced NF-κB activation", "setting": "[2]", "value": "significantly reducing the response"},
      {"measurement": "effect on TNF induced NF-κB activation", "setting": "[2]", "value": "significantly reducing the response"}
    ]},
    {"compound": "CC(C)Cc1ccc(C(C)C(=O)[O-])cc1.[Na+]", "note": "(centres unmarked) [Ibuprofen Sodium Salt]", "values": [
      {"measurement": "viability at 24 h", "setting": "[3]; Treatment 10^−3", "value": 90.3, "unit": "%"},
      {"measurement": "viability at 24 h", "setting": "[3]; Treatment 10^−4", "value": 98.2, "unit": "%"},
      {"measurement": "viability at 24 h", "setting": "[3]; Treatment 10^−5", "value": 100, "unit": "%"},
      {"measurement": "viability at 24 h", "setting": "[3]; Treatment 10^−6", "value": 102, "unit": "%"},
      {"measurement": "% Viability", "setting": "[1]; Treatment 10^−2", "value": 38.25, "unit": "%"},
      {"measurement": "concentration showing a cytotoxic response", "setting": "[1]", "value": "10^−2 M"},
      {"measurement": "effect on LPS induced NF-κB activation", "setting": "[2]", "value": "significantly reducing the response"},
      {"measurement": "effect on TNF induced NF-κB activation", "setting": "[2]", "value": "significantly reducing the response"}
    ]},
    {"compound": "TNF-α", "values": [
      {"measurement": "activation of NF-κB", "setting": "[2]; stimulus alone, LPS 100 ng/mL or TNF-α 1000 U/mL", "value": 80, "unit": "%"}
    ]}
  ]
}
